As a reminder, the IC50 is the concentration at which inhibition is half-maximal.

Each structure is given as a SMILES string.

The target of the first experiment is HSET full length protein (Homo sapiens (Human), UniProt Q9BW19). In words: HSET ADP-Glo Assay S - 3 μM ATP. To be noted: 5 nM HSET, 70 μg/mL microtubule, 80 min at rt, read-out: COMBINED HSET ADP GLO IC50. It counts as biochemical. Summed up: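 Full-length human HSET (5 nM) with paclitaxel-stabilised bovine brain microtubules (70 μg/mL) in HEPES pH 6.8 buffer was preincubated 10 min with compound. ATP at 3 μM started the reaction, which ran 80 min at rt. ADP formed was measured by ADP-Glo luminescence.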
Chain of HSET full length protein (Q9BW19 whole entry): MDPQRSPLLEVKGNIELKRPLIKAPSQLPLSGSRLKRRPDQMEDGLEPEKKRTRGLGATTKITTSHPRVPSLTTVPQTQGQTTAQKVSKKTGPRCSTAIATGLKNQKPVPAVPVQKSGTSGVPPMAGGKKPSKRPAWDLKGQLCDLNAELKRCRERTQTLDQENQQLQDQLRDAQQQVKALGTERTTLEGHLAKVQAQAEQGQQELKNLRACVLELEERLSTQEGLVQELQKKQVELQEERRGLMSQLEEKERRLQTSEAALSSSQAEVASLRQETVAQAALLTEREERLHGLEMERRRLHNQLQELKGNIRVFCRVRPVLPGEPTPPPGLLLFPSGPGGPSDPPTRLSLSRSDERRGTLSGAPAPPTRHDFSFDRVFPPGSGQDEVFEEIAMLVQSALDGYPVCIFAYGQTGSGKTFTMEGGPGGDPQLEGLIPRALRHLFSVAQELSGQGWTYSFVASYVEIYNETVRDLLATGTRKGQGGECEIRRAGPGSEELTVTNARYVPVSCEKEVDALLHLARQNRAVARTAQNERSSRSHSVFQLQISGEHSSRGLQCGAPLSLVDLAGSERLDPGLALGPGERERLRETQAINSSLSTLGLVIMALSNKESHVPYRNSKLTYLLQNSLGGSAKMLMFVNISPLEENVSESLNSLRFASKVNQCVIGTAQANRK
(In ADP-Glo the light output rises with the ADP produced.)
On to `Cc1cc(C(=O)N2CC[C@H](Nc3nccc4ccc(-c5noc(C)n5)cc34)C2)no1` [Example 251, (5-Methylisoxazol-3-yl)-[(3S)-3-[[7-(5-methyl-1,2,4-oxadiazol-3-yl)-1-isoquinolyl]amino]pyrrolidin-1-yl]methanone], for which the IC50 stood at 5620 nM.
On the same count and under the same terms, next, `Cc1nc(-c2ccc3ccnc(N[C@H]4CCN(C(=O)c5cnn(C(C)(C)C)c5)C4)c3c2)no1` [Example 252, (1-tert-Butylpyrazol-4-yl)-[(3S)-3-[[7-(5-methyl-1,2,4-oxadiazol-3-yl)-1-isoquinolyl]amino]pyrrolidin-1-yl]methanone]: 16400 nM; `Cc1nc(-c2ccc3ccnc(N[C@H]4CCN(C(=O)c5cc(C(C)C)[nH]n5)C4)c3c2)no1` [Example 253, (S)-(5-isopropyl-1 H-pyrazol-3-yl)(3-((7-(5-methyl-1,2,4-oxadiazol-3-yl)isoquinolin-1-yl)amino)pyrrolidin-1-yl)methanone]: 3410 nM; `Cc1nc(-c2ccc3ccnc(N[C@H]4CCN(C(=O)c5cc(C(C)(C)C)[nH]n5)C4)c3c2)no1` [Example 254, (S)-(5-(tert-butyl)-1 H-pyrazol-3-yl)(3-((7-(5-methyl-1,2,4-oxadiazol-3-yl)isoquinolin-1-yl)amino)pyrrolidin-1-yl)methanone]: 6100 nM.
On the same count and under the same terms, next, `CCCOC(=O)c1sc(C(=O)N2CC[C@@H](Nc3nccc4ccc(-c5noc(C)n5)cc34)[C@@H]2C)nc1C` [Example 255, Propyl 4-methyl-2-((2S,3R)-2-methyl-3-((7-(5-methyl-1,2,4-oxadiazol-3-yl)isoquinolin-1-yl)amino)pyrrolidine-1-carbonyl)thiazole-5-carboxylate]: 27 nM; `CCCOC(=O)c1sc(C(=O)N2C[C@@H](F)[C@H](Nc3nccc4ccc(-c5noc(C)n5)cc34)C2)nc1C` [Example 256, propyl 2-((3R,4R)-3-fluoro-4-((7-(5-methyl-1,2,4-oxadiazol-3-yl)isoquinolin-1-yl)amino)pyrrolidine-1-carbonyl)-4-methylthiazole-5-carboxylate]: 20 nM; `CCCOC(=O)n1cc(NC(=O)CCNc2nccc3ccc(-c4noc(C)n4)cc23)nc1C` [Example 257, Propyl 2-methyl-4-(3-{[7-(5-methyl-1,2,4-oxadiazol-3-yl)isoquinolin-1-yl]amino}propanamido)-1 H-imidazole-1-carboxylate]: 47 nM.
Same read-out and setting: for `Cc1nc(-c2ccc3ccnc(NCCC(=O)Nc4cn(C(=O)OC(C)C)c(C)n4)c3c2)no1` [Example 258, Propan-2-yl 2-methyl-4-(3-{[7-(5-methyl-1,2,4-oxadiazol-3-yl)isoquinolin-1-yl]amino}propanamido)-1 H-imidazole-1-carboxylate] the value was 207 nM.
Turning to `CCOC(=O)n1cc(NC(=O)CCNc2nccc3ccc(-c4noc(C)n4)cc23)nc1C` [Example 259, Ethyl 2-methyl-4-(3-{[7-(5-methyl-1,2,4-oxadiazol-3-yl)isoquinolin-1-yl]amino}propanamido)-1 H-imidazole-1-carboxylate], the IC50 was 531 nM.
As to `CCCOC(=O)n1cnc(NC(=O)CCNc2nccc3ccc(-c4noc(C)n4)cc23)c1` [Example 260, Propyl 4-(3-{[7-(5-methyl-1,2,4-oxadiazol-3-yl)isoquinolin-1-yl]amino}propanamido)-1 H-imidazole-1-carboxylate], the IC50 was found to be 140 nM.
Take `CCOC(=O)n1cc(NC(=O)CCNc2nccc3ccc(-c4cnn(C)c4)cc23)nc1C` [Example 261, Ethyl 2-methyl-4-(3-{[7-(1-methyl-1 H-pyrazol-4-yl)isoquinolin-1-yl]amino}propanamido)-1 H-imidazole-1-carboxylate]: the IC50 was found to be 13000 nM.
`CCCOC(=O)n1cc(NC(=O)CCNc2nccc3ccc(-c4cnn(C)c4)cc23)nc1C` [Example 262, Propyl 2-methyl-4-(3-{[7-(1-methyl-1 H-pyrazol-4-yl)isoquinolin-1-yl]amino}propanamido)-1 H-imidazole-1-carboxylate]: the IC50 worked out at 1000 nM.
Same read-out and setting: for `CCCOC(=O)n1cc(NC(=O)CCNC(=O)c2cccc(-c3noc(C)n3)c2)nc1C` [Example 263] the value was 200 nM.
On to `Cc1nc(-c2cccc(C(=O)NCCC(=O)Nc3cn(C(=O)OC(C)C)c(C)n3)c2)no1` [Example 264], for which the IC50 was 280 nM.
As to `CCOC(=O)n1cc(NC(=O)CCNC(=O)c2cccc(-c3noc(C)n3)c2)nc1C` [Example 265], the IC50 turned out to be 2250 nM.
Take `CCCOC(=O)n1cnc(NC(=O)CCNC(=O)c2cccc(-c3noc(C)n3)c2)c1` [Example 266, Propyl 4-(3-{[3-(5-methyl-1,2,4-oxadiazol-3-yl)phenyl]formamido}-propanamido)-1 H-imidazole-1-carboxylate]: the IC50 was 3400 nM.
On the same count and under the same terms, for `CCCOC(=O)n1cc(NC(=O)[C@@H](O)CNC(=O)c2cccc(-c3cnn(C)c3)c2)nc1C` [Example 267] the value was 380 nM; for `CCCOC(=O)n1cc(NC(=O)[C@H](O)CNC(=O)c2cccc(-c3cnn(C)c3)c2)nc1C` [Example 268], 950 nM.
On the same count and under the same terms, next, `Cc1nc(NC(=O)[C@@H](O)CNC(=O)c2cccc(-c3cnn(C)c3)c2)cn1C(=O)OC(C)C` [Example 269]: 910 nM; `Cc1nc(NC(=O)[C@H](O)CNC(=O)c2cccc(-c3cnn(C)c3)c2)cn1C(=O)OC(C)C` [Example 270]: 5100 nM.
Still for that read-out and setting: for `CCOC(=O)n1cc(NC(=O)[C@@H](O)CNC(=O)c2cccc(-c3cnn(C)c3)c2)nc1C` [Example 271] the value was 4000 nM; for `Cc1nc(-c2ccc3ccnc(NCCC(=O)Nc4cnn(C(=O)OC(C)(C)C)c4)c3c2)no1` [Example 272, tert-Butyl 4-(3-{[7-(5-methyl-1,2,4-oxadiazol-3-yl)isoquinolin-1-yl]amino}propanamido)-1 H-pyrazole-1-carboxylate], 160 nM.
In the case of `CCCOC(=O)n1cc(NC(=O)CCNc2nccc3ccc(-c4noc(C)n4)cc23)cn1` [Example 273, Propyl 4-(3-{[7-(5-methyl-1,2,4-oxadiazol-3-yl)isoquinolin-1-yl]amino}propanamido)-1 H-pyrazole-1-carboxylate], the IC50 was 80 nM.
Same read-out and setting: for `CCCOC(=O)n1cc(NC(=O)CCNC(=O)c2cccc(-c3noc(C)n3)c2)cn1` [Example 275, Propyl 4-(3-{[3-(5-methyl-1,2,4-oxadiazol-3-yl)phenyl]formamido}-propanamido)-1 H-pyrazole-1-carboxylate] the value was 11500 nM.
The same measure, in the same setting: next, `CCCOC(=O)c1sc(NC(=O)CCNC(=O)c2cccc(-c3noc(C)n3)n2)nc1C` [Example 276, Propyl 4-methyl-2-(3-{[6-(5-methyl-1,2,4-oxadiazol-3-yl)pyridin-2-yl]formamido}propanamido)-1,3-thiazole-5-carboxylate]: 37 nM; `Cc1nc(-c2cccc(C(=O)NCCC(=O)Nc3nc(C)c(C(=O)OC(C)(C)C)s3)n2)no1` [Example 277, tert-Butyl 4-methyl-2-(3-{[6-(5-methyl-1,2,4-oxadiazol-3-yl)pyridin-2-yl]formamido}propanamido)-1,3-thiazole-5-carboxylate]: 155 nM; `Cc1nc(-c2cccc(C(=O)NCCC(=O)Nc3nc(C)c(C(=O)OC(C)C)s3)n2)no1` [Example 278]: 71 nM.
Same read-out and setting: for `Cc1nc(-c2cccc(C(=O)NCCC(=O)Nc3nc(C)c(C(=O)OC(C)(C)C)s3)c2F)no1` [Example 279] the value was 860 nM.
`CCCOC(=O)c1sc(NC(=O)CCNc2nccc3ccc(C)cc23)nc1C` [Example 280, Propyl 4-methyl-2-[3-[(7-methyl-1-isoquinolyl)amino]propanoyl-amino]thiazole-5-carboxylate]: the IC50 is 141 nM.

For another experiment, the target named is HSET (Homo sapiens (Human), UniProt Q9BW19).
Chain of HSET (Q9BW19 whole entry): as above
Experiment: not given
To be noted: literature (Watts et al., 2013; Zhang et al., 2016); read-out: HSET IC50 in biochemical assays; cited from earlier work.
As to `O=C(O)c1cc(I)ccc1NC(=O)[C@H](Cc1ccccc1)NCc1ccccc1` [CW069], the IC50 is 75000 nM.
Consider `COc1ccc(-c2nc(N)s[n+]2-c2ccccc2)cc1` [SR31527], for which the IC50 was 6600 nM.

Source of the values: patent publication US20250084074A1, “SUBSTITUTED HETEROCYCLES AS HSET INHIBITORS” (MERCK PATENT GMBH, priority 2022, published 2025).
